In patent US8084649B2, “Herbicides” (Syngenta Crop Protection, inc., priority 2007, dated 2011):

Key:
[1] = system: Setaria faberi (SETFA); test: Post-emergence herbicidal activity, glasshouse pot test; format: in vivo; details: Setaria faberi, evaluated after 14 or 15 days, read-out: Post-emergence activity, SETFA (100=total damage to plant; 0=no damage to plant); for pest or weed control at 500 g/ha: rate 500 g/ha; for pest or weed control at 125 g/ha: rate 125 g/ha
Summary of the method: (§1)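 Post-emergence spray on 10-day-old potted plants (sterilised standard soil, controlled glasshouse conditions); spray solution from technical compound in acetone with Emulsogen EL, N-methylpyrrolidone, dipropylene glycol monomethyl ether and X-77. Rated 14–15 d later, 0 = no damage, 100 = total damage.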

[2] = system: Avena fatua (AVEFA); test: as above; format: in vivo; details: Avena fatua, evaluated after 14 or 15 days, read-out: Post-emergence activity, AVEFA (100=total damage to plant; 0=no damage to plant); for pest or weed control at 500 g/ha: rate 500 g/ha; for pest or weed control at 125 g/ha: rate 125 g/ha
Summary of the method: as §1

[3] = system: Lolium perenne (LOLPE); test: as above; format: in vivo; details: Lolium perenne, evaluated after 14 or 15 days, read-out: Post-emergence activity, LOLPE (100=total damage to plant; 0=no damage to plant); for pest or weed control at 500 g/ha: rate 500 g/ha; for pest or weed control at 125 g/ha: rate 125 g/ha
Summary of the method: as §1

[4] = system: Digitaria sanguinalis (DIGSA); test: as above; format: in vivo; details: Digitaria sanguinalis, evaluated after 14 or 15 days, read-out: Post-emergence activity, DIGSA (100=total damage to plant; 0=no damage to plant); for pest or weed control at 500 g/ha: rate 500 g/ha; for pest or weed control at 125 g/ha: rate 125 g/ha
Summary of the method: as §1

[5] = system: Alopecurus myosuroides (ALOMY); test: as above; format: in vivo; details: Alopecurus myosuroides, evaluated after 14 or 15 days, read-out: Post-emergence activity, ALOMY (100=total damage to plant; 0=no damage to plant); for pest or weed control at 500 g/ha: rate 500 g/ha; for pest or weed control at 125 g/ha: rate 125 g/ha
Summary of the method: as §1

[6] = system: Echinochloa crus-galli (ECHCG); test: as above; format: in vivo; details: Echinochloa crus-galli, evaluated after 14 or 15 days, read-out: Post-emergence activity, ECHCG (100=total damage to plant; 0=no damage to plant); for pest or weed control at 500 g/ha: rate 500 g/ha; for pest or weed control at 125 g/ha: rate 125 g/ha
Summary of the method: as §1

[7] = system: Setaria faberi (SETFA); test: Pre-emergence herbicidal activity, glasshouse pot test; format: in vivo; details: Setaria faberi, 480 h, evaluated after 20 days, read-out: Pre-emergence activity, SETFA (100=total damage to plant; 0=no damage to plant); for pest or weed control at 500 g/ha: rate 500 g/ha
Summary of the method: (§2)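 Test compound, taken up in acetone with an Emulsogen EL/NMP/dipropylene glycol monomethyl ether/X-77 formulant and diluted with water, was sprayed onto soil of freshly sown pots after one day of cultivation. Evaluation at 20 days used a 0–100 injury rating.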

[8] = system: Avena fatua (AVEFA); test: as above; format: in vivo; details: Avena fatua, 480 h, evaluated after 20 days, read-out: Pre-emergence activity, AVEFA (100=total damage to plant; 0=no damage to plant); for pest or weed control at 500 g/ha: rate 500 g/ha
Summary of the method: as §2

[9] = system: Lolium perenne (LOLPE); test: as above; format: in vivo; details: Lolium perenne, 480 h, evaluated after 20 days, read-out: Pre-emergence activity, LOLPE (100=total damage to plant; 0=no damage to plant); for pest or weed control at 500 g/ha: rate 500 g/ha
Summary of the method: as §2

[10] = system: Digitaria sanguinalis (DIGSA); test: as above; format: in vivo; details: Digitaria sanguinalis, 480 h, evaluated after 20 days, read-out: Pre-emergence activity, DIGSA (100=total damage to plant; 0=no damage to plant); for pest or weed control at 500 g/ha: rate 500 g/ha
Summary of the method: as §2

[11] = system: Alopecurus myosuroides (ALOMY); test: as above; format: in vivo; details: Alopecurus myosuroides, 480 h, evaluated after 20 days, read-out: Pre-emergence activity, ALOMY (100=total damage to plant; 0=no damage to plant); for pest or weed control at 500 g/ha: rate 500 g/ha
Summary of the method: as §2

[12] = system: Echinochloa crus-galli (ECHCG); test: as above; format: in vivo; details: Echinochloa crus-galli, 480 h, evaluated after 20 days, read-out: Pre-emergence activity, ECHCG (100=total damage to plant; 0=no damage to plant); for pest or weed control at 500 g/ha: rate 500 g/ha
Summary of the method: as §2

| SMILES | pest or weed control at 500 g/ha [1] | pest or weed control at 500 g/ha [2] | pest or weed control at 500 g/ha [3] | pest or weed control at 500 g/ha [4] | pest or weed control at 500 g/ha [5] | pest or weed control at 500 g/ha [6] | pest or weed control at 500 g/ha [7] | pest or weed control at 500 g/ha [8] | pest or weed control at 500 g/ha [9] | pest or weed control at 500 g/ha [10] | pest or weed control at 500 g/ha [11] | pest or weed control at 500 g/ha [12] | pest or weed control at 125 g/ha [1] | pest or weed control at 125 g/ha [2] | pest or weed control at 125 g/ha [3] | pest or weed control at 125 g/ha [4] | pest or weed control at 125 g/ha [5] | pest or weed control at 125 g/ha [6] | other results |
| --- | --- | --- | --- | --- | --- | --- | --- | --- | --- | --- | --- | --- | --- | --- | --- | --- | --- | --- | --- |
| Cc1ccc(C)c(C2=C(OC(=O)N(C)CCC#N)CC3(CCOCC3)CC2=O)c1 [Compound P57] | – | – | – | – | – | – | – | – | – | – | – | – | – | – | – | – | – | – | melting point: 108 to 114 °C |
| CCc1ccc(-c2ccc(Cl)cc2)cc1C1=C(O)CC2(CCOCC2)CC1=O [Compound T4, 9-(5-(4′-chlorophenyl)-2-ethylphenyl)-3-oxaspiro[5.5]undecane-8,10-dione] | 90% | 80% | 70% | 100% | 90% | 100% | 100% | 70% | 70% | 100% | 70% | 100% | – | – | – | – | – | – | melting point: 94.5 to 97.5 °C |
| CCCCCCCCCCCCCCCC(=O)OC1=C(c2c(CC)cc(C)cc2CC)C(=O)CC2(CCOCC2)C1 [Compound P45] | – | – | – | – | – | – | 100% | 100% | 100% | 100% | 80% | 100% | 10% | 60% | 0% | 20% | 30% | 10% | – |
| CSC(C)CC1CC(=O)C(c2c(C)cc(C)cc2C)=C(O)C1 (centres unmarked) [Compound T18] | 80% | 60% | 70% | 80% | 60% | 70% | 40% | 10% | 10% | 60% | 20% | 70% | – | – | – | – | – | – | – |
| CCc1cc(C)cc(CC)c1C1=C(OC(=O)C(C)CC)CC2(CCOCC2)CC1=O (centres unmarked) [Compound P13] | – | – | – | – | – | – | 100% | 100% | 100% | 100% | 100% | 100% | 90% | 100% | 90% | 100% | 90% | 100% | – |
| CCc1cc(C)cc(CC)c1C1=C(O)CC(C(C)(C)S(C)(=O)=O)CC1=O (centres unmarked) [Compound T19] | – | – | – | – | – | – | – | – | – | – | – | – | – | – | – | – | – | – | pest or weed control at 250 g/ha ([1]; rate 250 g/ha): 80%; pest or weed control at 250 g/ha ([2]; rate 250 g/ha): 80%; pest or weed control at 250 g/ha ([3]; rate 250 g/ha): 80%; pest or weed control at 250 g/ha ([4]; rate 250 g/ha): 80%; pest or weed control at 250 g/ha ([5]; rate 250 g/ha): 80%; pest or weed control at 250 g/ha ([6]; rate 250 g/ha): 80%; pest or weed control at 250 g/ha ([7]; rate 250 g/ha): 50%; pest or weed control at 250 g/ha ([8]; rate 250 g/ha): 70%; pest or weed control at 250 g/ha ([9]; rate 250 g/ha): 80%; pest or weed control at 250 g/ha ([10]; rate 250 g/ha): 90%; pest or weed control at 250 g/ha ([11]; rate 250 g/ha): 70%; pest or weed control at 250 g/ha ([12]; rate 250 g/ha): 80% |
| C=CCOC(=O)OC1=C(c2c(CC)cc(C)cc2CC)C(=O)CC2(CCOCC2)C1 [Compound P21] | – | – | – | – | – | – | 100% | 100% | 100% | 100% | 100% | 100% | 90% | 100% | 90% | 100% | 100% | 100% | – |
| CCc1cc(C)cc(CC)c1C1=C(OC(=O)C(C)C)CC2(CCOCC2)CC1=O [Compound P3] | – | – | – | – | – | – | 100% | 100% | 100% | 100% | 100% | 100% | 90% | 100% | 100% | 90% | 100% | 100% | – |
| Cc1ccc(-c2ccc(Cl)cc2)cc1C1=C(O)CC2(CCOCC2)CC1=O [Compound T3] | 100% | 80% | 80% | 100% | 80% | 100% | 100% | 50% | 60% | 100% | 40% | 100% | – | – | – | – | – | – | – |
| CCc1ccc(-c2ccc(Cl)cc2)cc1C1=C(O)CC(CCSC)CC1=O (centres unmarked) [Compound T65] | – | – | – | – | – | – | 100% | 60% | 70% | 100% | 90% | 100% | 90% | 90% | 70% | 90% | 90% | 100% | – |
